One compound from patent US20040198788A1, “Medicinal compositions containing angiotensin II receptor antagonist” (SANKYO COMPANY, LIMITED, priority 2001, published 2004) can be followed below.

This assay deals with Watanabe heritable hyperlipidemic (WHHL) rabbits. Briefly: Determination of aortic lesioned area. Type of assay: in vivo, rabbit. The settings on record: olmesartan 0.5 mg/kg, compound A 20 mg/kg. Here is the method: Determination of Aortic Lesioned Area Watanabe heritable hyperlipidemic (WHHL) rabbits aged 16 weeks were divided in 4 groups consisting of 12 or 13 animals each: control group (5% gum arabic solution), olmesartan (0.5 mg/kg) group, compound A (20 mg/kg) group, and combination group of olmesartan (0.5 mg/kg) and compound A (20 mg/kg). These test agents were orally administered for 24 weeks. After the 24th week, the rabbits were sacrificed and their aorta were isolated to determine the aortic lumen area and arteriosclerotic lesion area in the aortic lumen. Then the percentage of arteriosclerotic lesion area in the aortic lumen [arteriosclerotic lesion area in the aortic lumen/the aortic lumen area]×100 (%)] was calculated.

Regarding `CCCCCCCCN1CCc2c(C)c(CC(=O)O)c(C)c(NC(=O)C(C)(C)C)c21.O=S(=O)(O)O` [compound A, N-(1-octyl-5-carboxymethyl-4,6-dimethylindolin-7-yl)-2,2-dimethylpropaneamide sulfate], the “lesion area in % (percentage of arteriosclerotic lesion area in the aortic lumen)” value (WHHL rabbits aged 16 weeks, oral administration for 24 weeks, control group 59.7) stood at 59.0%. The “arteriosclerotic lesion area compared with control / single-administration groups (in words)” value (WHHL rabbits, oral, 24 weeks) is reported as “little affected”.
